Measured values from patent US12459951B2, “Compounds that interact with RAS superfamily proteins for treatment of cancers, inflammatory diseases, rasopathies, and fibrotic disease” (SHY Therapeutics, LLC, priority 2022, dated 2025).
Where a name gives a salt, the structure may show the parent alone.

System: Smad2/Smad3 phosphorylation
Assay: Phospho-Smad2/3 Inhibition Assay (western blot), Panc-1
Format: cell-based, human
Conditions: at 10 μM, Panc-1 pancreatic cancer cell line; starred symbols = activation
Method: Protocol for Phospho-Smad2/3 Inhibition Assay
This assay is referred to as the “Phospho-Smad2/3 Inhibition Assay” throughout this application.
Cell lines: Human tumor-derived pancreatic cancer cell line Panc-1 (expressing KRas G12D mutant) and mouse muscle myoblast C2C12 were purchased from American Type Culture Collection and grown in complete DMEM-High Glucose, supplemented with penicillin (100 U/mL), streptomycin (100 μg/mL), and 10% heat-inactivated FBS at 37° C. in a humidified incubator with 5% CO2.
Method: Cells were plated at 350000 cells/well density in a 12-well plate, allowed 3 hours to adhere to the plate, then starved in the appropriate medium in the presence of 0.5% FBS overnight. The small molecules to be tested were added to the cells in the final concentration of 10 μM in the presence of 0.3% DMSO for 3 hours incubation at 37° C. For IC50 value determination, serial dilutions of compounds were added to cells under the same conditions. Next, Panc-1 cells were stimulated with 10 ng/ml TGF-b1 for 1 hour, and C2C12 cells were stimulated with 10 ng/ml TGF-b1 for 20 minutes (recombinant human TGF-b1, R&D Systems). After stimulation cells were lysed with lysis buffer containing 1% Triton X-100, EDTA, and Halt™ Protease & Phosphatase Inhibitor Cocktail (Thermo Scientific). Protein concentration was assessed by BCA protein assay (Thermo Scientific). Phosphorylation level of Smad2/Smad3 was determined by western blot.
Western blot protocol: Equal amounts of protein (15-50 μg) were separated by SDS-PAGE and transferred to nitrocellulose membranes (Invitrogen by Thermo Fisher Scientific). The membrane was stained with Ponceau S Stain (Boston BioProducts) to verify uniform protein loading. Membranes were blocked with 10% milk and phosphorylation levels of Smad2/Smad3 were assessed by incubating overnight at 4° C. with the following antibodies: Phospho-Smad2 (Ser465/467) and Phosph-Smad3 (Ser423/425), both from Cell Signaling Technology. Then the membranes were incubated with HRP-conjugated secondary antibody (Jackson Immunoresearch, West Grove, PA). Bands were incubated in Amersham ECL Prime Western Blotting Detection Reagent (GE Healthcare) and visualized using the ChemiDoc MP imaging system (Bio-Rad).

| SMILES | % inh of Smad2/3 phosphorylation in Panc-1 |
| --- | --- |
| Cc1c(-c2ccn(C(C)C)n2)cn2nc(-c3nccn3C)nc(Nc3nccc(OCCN(C)C)n3)c12 [Compound 96, N-(4-(2-(Dimethylamino)ethoxy)pyrimidin-2-yl)-6-(1-isopropyl-1H-pyrazol-3-yl)-5-methyl-2-(1-methyl-1H-imidazol-2-yl)pyrrolo[2,1-f][1,2,4]triazin-4-amine] | D (D = 76-100% inhibition) |
| COc1cc(Nc2nc(-c3nccn3C)nn3cc(-c4ccn(C5CC5)n4)c(C)c23)ncn1 [Compound 135, 6-(1-Cyclopropyl-1H-pyrazol-3-yl)-N-(6-methoxypyrimidin-4-yl)-5-methyl-2-(1-methyl-1H-imidazol-2-yl)pyrrolo[2,1-f][1,2,4]triazin-4-amine] | A* (A* = 1-25% activation) |
| Cc1c(-c2ccn(C(C)C)n2)cn2nc(-c3ccccn3)nc(O)c12 [Compound 8, 6-(1-Isopropyl-1H-pyrazol-3-yl)-5-methyl-2-(pyridin-2-yl)pyrrolo[2,1-f][1,2,4]triazin-4-ol] | 0 (0 = 0% inhibition) |
| Cc1c(-c2ccn(C)n2)cn2nc(-c3nccn3C)nc(Nc3cnccn3)c12 [Compound 120, 5-Methyl-2-(1-methyl-1H-imidazol-2-yl)-6-(1-methyl-1H-pyrazol-3-yl)-N-(pyrazin-2-yl)pyrrolo[2,1-f][1,2,4]triazin-4-amine] | A* (A* = 1-25% activation) |
| COc1cc(-c2cn3nc(-c4nccn4C)nc(N[C@H]4C[C@@H](OC)C4)c3c2C)ccn1 [Compound 162, N-((1s,3s)-3-Methoxycyclobutyl)-6-(2-methoxypyridin-4-yl)-5-methyl-2-(1-methyl-1H-imidazol-2-yl)pyrrolo[2,1-f][1,2,4]triazin-4-amine] | A (A = 1-25% inhibition) |
| Cc1c(-c2ccn(C)n2)cn2nc(-c3nccn3C)nc(Nc3ccn(C4CC4)n3)c12 [Compound 111, N-(1-Cyclopropyl-1H-pyrazol-3-yl)-5-methyl-2-(1-methyl-1H-imidazol-2-yl)-6-(1-methyl-1H-pyrazol-3-yl)pyrrolo[2,1-f][1,2,4]triazin-4-amine] | D* (D* = 76-100% activation) |
| COc1cc(Nc2nc(-c3nccn3C)nn3cc(-c4ccccn4)c(C)c23)ncn1 [Compound 94, N-(6-Methoxypyrimidin-4-yl)-5-methyl-2-(1-methyl-1H-imidazol-2-yl)-6-(pyridin-2-yl)pyrrolo[2,1-f][1,2,4]triazin-4-amine] | B* (B* = 26-45% activation) |
| COc1cnc(Nc2nc(-c3nccn3C)nn3cc(-c4ccn(C)n4)c(C)c23)nc1.Cl [Compound 117, N-(5-Methoxypyrimidin-2-yl)-5-methyl-2-(1-methyl-1H-imidazol-2-yl)-6-(1-methyl-1H-pyrazol-3-yl)pyrrolo[2,1-f][1,2,4]triazin-4-amine hydrochloride salt] | A (A = 1-25% inhibition) |
| COc1ccnc(Nc2nc(-c3nccn3C)nn3cc(-c4ccn(C)n4)c(C)c23)n1.Cl [Compound 114, N-(4-Methoxypyrimidin-2-yl)-5-methyl-2-(1-methyl-1H-imidazol-2-yl)-6-(1-methyl-1H-pyrazol-3-yl)pyrrolo[2,1-f][1,2,4]triazin-4-amine hydrochloride salt] | D* (D* = 76-100% activation) |
| Cc1c(-c2ccn(C)n2)cn2nc(-c3nccn3C)nc(Nc3cc(OC(C)C)ccn3)c12 [Compound 136, N-(4-Isopropoxypyridin-2-yl)-5-methyl-2-(1-methyl-1H-imidazol-2-yl)-6-(1-methyl-1H-pyrazol-3-yl)pyrrolo[2,1-f][1,2,4]triazin-4-amine] | A (A = 1-25% inhibition) |
| COc1ccnc(Nc2nc(-c3nccn3C)nn3cc(-c4ccn(C(F)F)n4)c(C)c23)n1 [Compound 95, 6-(1-(Difluoromethyl)-1H-pyrazol-3-yl)-N-(4-methoxypyrimidin-2-yl)-5-methyl-2-(1-methyl-1H-imidazol-2-yl)pyrrolo[2,1-f][1,2,4]triazin-4-amine] | C* (C* = 46-75% activation) |
| COc1cc(Nc2nc(-c3nccn3C)nn3cc(-c4ccn(C(F)F)n4)c(C)c23)ncn1 [Compound 98, 6-(1-(Difluoromethyl)-1H-pyrazol-3-yl)-N-(6-methoxypyrimidin-4-yl)-5-methyl-2-(1-methyl-1H-imidazol-2-yl)pyrrolo[2,1-f][1,2,4]triazin-4-amine] | D (D = 76-100% inhibition) |
| Cc1c(-c2ccn(C)n2)cn2nc(-c3nccn3C)nc(Nc3n[nH]c(C4CC4)n3)c12 [Compound 113, N-(5-Cyclopropyl-1H-1,2,4-triazol-3-yl)-5-methyl-2-(1-methyl-1H-imidazol-2-yl)-6-(1-methyl-1H-pyrazol-3-yl)pyrrolo[2,1-f][1,2,4]triazin-4-amine] | D* (D* = 76-100% activation) |
| COCCO[C@H]1C[C@H](Nc2nc(-c3nccn3C)nn3cc(-c4cccnc4)c(C)c23)C1 [Compound 152, N-((1r,3r)-3-(2-methoxyethoxy)cyclo-butyl)-5-methyl-2-(1-methyl-1H-imidazol-2-yl)-6-(pyridin-3-yl)pyrrolo[2,1-f][1,2,4]triazin-4-amine] | A (A = 1-25% inhibition) |
| Cc1c(-c2ccn(C3CC3)n2)cn2nc(-c3nccn3C)nc(Nc3cc(OC(F)F)ccn3)c12 [Compound 139, 6-(1-Cyclopropyl-1H-pyrazol-3-yl)-N-(4-(difluoromethoxy)pyridin-2-yl)-5-methyl-2-(1-methyl-1H-imidazol-2-yl)pyrrolo[2,1-f][1,2,4]triazin-4-amine] | A* (A* = 1-25% activation) |
| COc1cc(-c2cn3nc(-c4nccn4C)nc(N[C@@H]4CC[C@H](OC)C4)c3c2C)ccn1 (racemic) [Compound 164, rac N-((1R,3S)-3-Methoxycyclopentyl)-6-(2-methoxypyridin-4-yl)-5-methyl-2-(1-methyl-1H-imidazol-2-yl)pyrrolo[2,1-f][1,2,4]triazin-4-amine] | A* (A* = 1-25% activation) |
| CO[C@H]1C[C@H](Nc2nc(-c3nccn3C)nn3cc(-c4ccn(C)n4)c(C)c23)C1 [Compound 103, N-((1r,3r)-3-Methoxycyclobutyl)-5-methyl-2-(1-methyl-1H-imidazol-2-yl)-6-(1-methyl-1H-pyrazol-3-yl)pyrrolo[2,1-f][1,2,4]triazin-4-amine hydrochloride salt] | C* (C* = 46-75% activation) |
| Cc1c(-c2ccn(C3CC3)n2)cn2nc(-c3nccn3C)nc(Nc3cc(OCCCO)ccn3)c12 [Compound 149, 3-((2-((6-(1-Cyclopropyl-1H-pyrazol-3-yl)-5-methyl-2-(1-methyl-1H-imidazol-2-yl)pyrrolo[2,1-f][1,2,4]triazin-4-yl)amino)pyridin-4-yl)oxy)propan-1-ol] | A (A = 1-25% inhibition) |
| COCCOc1cc(Nc2nc(-c3nccn3C)nn3cc(-c4ccn(C(C)C)n4)c(C)c23)ncn1 [Compound 122, 6-(1-Isopropyl-1H-pyrazol-3-yl)-N-(6-(2-methoxyethoxy)pyrimidin-4-yl)-5-methyl-2-(1-methyl-1H-imidazol-2-yl)pyrrolo[2,1-f][1,2,4]triazin-4-amine] | C (C = 46-75% inhibition) |
| Cc1c(-c2ccn(C)n2)cn2nc(-c3nccn3C)nc(Nc3nnco3)c12.Cl [Compound 119, N-(5-Methyl-2-(1-methyl-1H-imidazol-2-yl)-6-(1-methyl-1H-pyrazol-3-yl)pyrrolo[2,1-f][1,2,4]triazin-4-yl)-1,3,4-oxadiazol-2-amine hydrochloride salt] | B* (B* = 26-45% activation) |
| COc1cc(-c2cn3nc(-c4nccn4C)nc(N[C@@H]4CC[C@@H](OC)C4)c3c2C)ccn1 (racemic) [Compound 163, rac N-((1R,3R)-3-Methoxycyclopentyl)-6-(2-methoxypyridin-4-yl)-5-methyl-2-(1-methyl-1H-imidazol-2-yl)pyrrolo[2,1-f][1,2,4]triazin-4-amine] | B (B = 26-45% inhibition) |
| CO[C@H]1CC[C@@H](Nc2nc(-c3nccn3C)nn3cc(-c4cccnc4)c(C)c23)C1 (racemic) [Compound 155, rac N-((1R,3S)-3-methoxy-cyclopentyl)-5-methyl-2-(1-methyl-1H-imidazol-2-yl)-6-(pyridin-3-yl)pyrrolo[2,1-f][1,2,4]triazin-4-amine] | A (A = 1-25% inhibition) |
| Cc1c(-c2ccn(C3CC3)n2)cn2nc(-c3nccn3C)nc(Nc3cc(OCCN(C)C)ccn3)c12 [Compound 147, 6-(1-Cyclopropyl-1H-pyrazol-3-yl)-N-(4-(2-(dimethylamino)ethoxy)pyridin-2-yl)-5-methyl-2-(1-methyl-1H-imidazol-2-yl)pyrrolo[2,1-f][1,2,4]triazin-4-amine] | C (C = 46-75% inhibition) |
